Key:
hexokinase = assay: Hexokinase activity in extracts of wild type yeast cells; assay type: biochemical, S. cerevisiae; settings: 50 µM; variable glucose / 5 mM ATP and variable ATP / 5 mM glucose
Protocol: In vitro hexokinase activity of yeast cells was determined as described previously ([44], [76]). As such, the yeast cells were first grown to exponential phase on Complete Synthetic medium supplemented with 110 mM galactose. The cells were harvested and washed with ice-cold 25 mM MES buffer pH 6. Subsequently, cells were resuspended in lysis buffer (50 mM HEPES pH 7, 150 mM NaCl, 2.5 mM MgCl2, 5% glycerol and 1% Triton X-100) containing protease inhibitor after which the yeast cells were mechanically lysed. After protein level determination, total protein concentration was diluted to 0.1 mg/mL in reaction buffer (50 mM HEPES pH 7, 150 mM NaCl, 2.5 mM MgCl2, 5% glycerol). For measuring activity, reaction buffer was supplemented with 1.07 mM NADP^+ and 10 U/mL Glu6P dehydrogenase (Sigma-Aldrich G7877). After temperature equilibration of the plate at 30°C, the reaction was started by adding both ATP and glucose to the reaction buffer. OD340 was measured using the Synergy H1 Hybrid reader and hexokinase activity was determined based on the linear increase of absorbance in the first 10-20 s.

yeast tps1Δ cells = assay: Glu6P and Fru1,6bisP accumulation in tps1Δ yeast cells after glucose addition; assay type: cell-based, S. cerevisiae; settings: compound added at -10 min
Protocol: For measuring metabolite levels, yeast cells were typically grown in Complete Synthetic medium. […] However, when comparing the effect of Warbicin ® compounds on metabolite profiles of wild type and tps1Δ strains, cells were grown on 110 mM galactose. When grown to exponential phase, cells were harvested by centrifugation and washed twice with ice-cold 25 mM 2-(N-Morpholino)ethanesulfonic acid (MES) buffer, pH 6. Cells were suspended in Complete Synthetic medium without sugar at a concentration of 75 mg (wet weight)/mL followed by a temperature equilibration at 30°C in a shaking water bath for 30 min. Depending on the experiment, a final concentration of 2.5 mM, 7.5 mM or 10 mM glucose was added to the cell suspension. Compounds were added 10 min prior to glucose addition. […]
Through endpoint measurement of the absorbance of NADH or NADPH at 340 nm, metabolite concentrations in the yeast cells were calculated by applying Lambert’s Law. Different metabolites were measured through the use of coupled enzymatic reactions. […] Depending on the measured metabolite, different co-factors and auxiliary enzymes were added. For measuring glucose-6-phosphate, 1.07 mM NADP^+ was added to the assay buffer after which the baseline absorbance was measured. […] After stabilization of the OD340 spectra, ATP concentrations were measured by additionally adding 10 mM MgCl2 and 0.5 mM glucose to the assay buffer. […]

Cc1nc(Sc2nnc3n2CCCCC3)c2c(-c3cccs3)csc2n1 [WBC-A]
effect on in vitro hexokinase activity (hexokinase): No significant effect
hyperaccumulation of Glu6P and Fru1,6bisP after addition of 2.5 mM glucose (yeast tps1Δ cells): concentration-dependent gradual drop in Glu6P and a more precipitous drop in Fru1,6bisP

Source: paper PMC11374660, “The novel family of Warbicin® compounds inhibits glucose uptake both in yeast and human cells and restrains cancer cell proliferation” (Frontiers in Oncology, 2024)
